# Test results: patent publication US5576290A, “Compositions and methods for the diagnosis and treatment of psychogenic erectile dysfunction” (Competitive Technologies, Inc., priority 1994, dated 1996)
# Bridge positions count the residues as written; N and C are the ends. Square brackets hold non-standard residues; d marks the D form. Ends that are not written are not given here. Peptide text beside a SMILES is read from it. Nle = CCCC[C@H](N)C(=O)O
# Experiments:
# human volunteers = assay: Erectile response after subcutaneous injection of peptide in human volunteers; assay type: in vivo
# Experimental: The peptides described herein were prepared by sterile methods to a final concentration of 10 mg of peptide per ml of physiological saline. In addition to a full dose providing 10 mg of the peptide to the individual, doses of 0.1 to 0.3 ml (providing 1 mg to 3 mg of the peptide to each individual) of this stock material were also injected into volunteers, with a dose of 0.1 to 0.2 ml being the most often used dosage.
# The onset of erection occurred about 1 to 2 hours after injection. […] A dose of 3.75 mg given to volunteers produced a long lasting erection of 4 to 6 hour duration. […] In some, this discomfort was considerable. […] Accordingly, although dosages of from about 1.0 mg to about 10.0 mg show the desired activity according to the present invention, it is preferred that the lower ranges of dosage which bring about the desired erection without undesirable side effects be used. Accordingly, it is preferred that dosages of about 1.5 mg to 2.5 mg of peptide be provided when the route of administration is subcutaneous or intramuscular. With other routes of administration, this range may require adjustment, however, it is still preferred that the lower range of adjusted effective dosages for the selected route of administration be used.
# patients = settings: cited from earlier work
# men = settings: oral, a few hundred men treated for depression, early 1980s; cited from earlier work
# [1] = injection, alone or combined with phentolamine
molecule,measurement,setting,value
CCCC[C@H](NC(C)=O)C(=O)N[C@H]1CC(=O)NCCCC[C@@H](C(=O)NCC(N)=O)NC(=O)[C@H](Cc2c[nH]c3ccccc23)NC(=O)[C@H](CCCNC(=N)N)NC(=O)[C@@H](Cc2ccccc2)NC(=O)[C@H](Cc2c[nH]cn2)NC1=O (Ac-[Nle]DH[dF]RWKG-NH2; lactam 2-7),duration of erection (sustained intermittently),human volunteers; 1.25 mg dose,up to 6 hours
same,induction of erection,human volunteers; 1.25 mg dose,induced an erection
same,onset of erection,"human volunteers; 1.25 mg dose, compared with 2.5 mg",took longer to initially occur
same,time to erection following administration,human volunteers; 2.5 mg,≤ 60 min
same,stomach discomfort,human volunteers; 2.5 mg and 1.25 mg doses,No stomach discomfort was experienced
COc1ccc(Cc2nccc3cc(OC)c(OC)cc23)cc1OC [papaverine],share of patients in whom erection is induced,patients; [1],about 70%
same,side effects,patients; [1],"pain, ecchymosis, and occasional episodes of priapism"
O=c1n(CCCN2CCN(c3cccc(Cl)c3)CC2)nc2ccccn12 [trazodone],erections as unexpected effect,men,prolonged and painful erections
"vasoactive intestinal peptide (HSDAVFTDNYTRLRKQMAVKKYLNSILN; ends and bridges not checked; UniProt P01282 125-152, looked up)",induction of full erection necessary for intercourse,"patients; intrapenile injections, trials",proven ineffective
